Measurements from patent US12173088B2, “Anti-microbial peptides” (priority 2018, dated 2024).
Converted amounts (≈) assume the structure as drawn. Like-named read-outs stand apart in the source and are kept apart here. Peptide text beside a SMILES is read from it.

Key:
[1] = test system: P. aeruginosa PAO1; format: cell-based, Pseudomonas aeruginosa; conditions: PAO1
In short: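 Broth microdilution in tryptic soy broth: log-phase cultures (OD600 ≈0.5) diluted to OD600 0.001, given two-fold peptide dilutions, incubated overnight at 37° C. Growth read at 630 nm.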

[2] = Hemolytic assay; format: cell-based, human; conditions: human
In short: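 Washed hRBCs (2% v/v) exposed to peptide for 1 h at 37 °C, then centrifuged and hemoglobin in supernatant read at 545 nm. Lysis normalized to Triton X-100 (2% or 1%; 100%) and PBS (0%); HL50 is the peptide concentration giving 50% lysis, and CSI is HL50/MIC.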

[3] = Liver microsomal assay; format: in vitro ADME; conditions: in one hour
[4] = Cell viability assay (MTS); format: cell-based; conditions: human, read-out: LC50
Description: Peptides assessed for potential cytotoxicity using HepaRG (human hepatic progenitor cell line) and HEK-293 (human embryonic kidney) cells. Briefly, cells were seeded at a density of 1×10^4 per well in a tissue culture 96-well plate. For HepaRG cells, the working medium is prepared by adding the HepaRG Supplement to 100 ml/500 ml of Williams' Medium E and 1 ml/5 ml of GlutaMAX-1. For HEK-293 cells, DMEM supplemented with 10% fetal bovine serum (FBS) for both cell lines, and incubated at 37° C. in a 5% CO2 atmosphere for 24 hours. Culture medium was aspirated and replaced with fresh serum free media. Cells were exposed to different concentration of horine and verine for 1 hour at 37° C. in a 5% CO2 atmosphere. Post-incubation, the cells were washed and incubated with 100 μL of HepaRG specific/DMEM media containing 20 μL of MTS reagent for 2 hours at 37° C. Absorbance was read at 492 nm using a ChroMate® microplate reader (GMI).

[5] = Toxicity to cells; format: cell-based; conditions: human, MRC9 human lung fibroblasts; read-out: LC50 (the source's name)
[6] = Toxicity to cells; format: cell-based; conditions: splenocytes (mouse spleen), Spleenocytes, read-out: LC50 (the source's name)
[7] = test system: S. aureus JE2 (wild type)
Description: (§1) The antibacterial activity of peptides was evaluated using a standard broth microdilution protocol with minor modifications (Mishra, et al. (2017) Acta Biomater., 49:316-328). In brief, logarithmic phase bacterial cultures (i.e., optical density at 600 nm≈0.5) were diluted to 0.001 OD and aliquoted 90 μL per well into a 96-well polystyrene microplate. Added 10 μL peptides per well with various concentrations, plates were incubated at 37° C., overnight. Post incubation the plates are read at 630 nm using a ChroMate® Microplate Reader (GMI). […] To study the influence of medium conditions on the antimicrobial activity of peptides against S. aureus USA300 at different pHs (6.8, 7.2, and 8.0), 150 mM sodium chloride (NaCl), 5-10% of human serum, mouse plasma, and peritoneal fluid were included into the assays.

[8] = test system: S. aureus ΔmprF mutant; conditions: Table 17; strain ΔmprF
Description: as §1

[9] = HEK-293 (human embryonic kidney) cells, HEK293
[10] = HepaRG (human hepatic progenitor cell line)

| SMILES | MIC PA (P. aeruginosa PAO1) [1] | HC50 at 1 h ([2]; human red blood cells, 2% (v/v)) | Degradation in liver microsomal assay [3] | CC50 at 1 hour [4, 9] | CC50 at 1 hour [4, 10] | MIC P. aeruginosa PAO1 [1] | CC50 [5] | CC50 [6] | MIC ([7]; JE2 (wild type)) | MIC [8] | HC50 at 1 hour [2] | MIC ([7]; Table 17, strain JE2) | HC50 at 1 hour ([2]; 2% hRBCs, read-out: LC50) |
| --- | --- | --- | --- | --- | --- | --- | --- | --- | --- | --- | --- | --- | --- |
| CC(C)C[C@H](NC(=O)[C@H](CC(C)C)NC(=O)[C@H](CCCCN)NC(=O)[C@H](CC(C)C)NC(=O)CNC(=O)[C@H](CC(C)C)NC(=O)[C@H](CO)NC(=O)[C@H](CC(C)C)NC(=O)[C@H](CC(C)C)NC(=O)[C@H](CC(C)C)NC(=O)[C@H](CCCCN)NC(=O)[C@H](CC(C)C)NC(=O)CN)C(N)=O [DFT561, GLKLLLSLGLKLL] (H-GLKLLLSLGLKLL-NH2; N-terminus and C-terminus assumed) | >25 µM | > 300 µM |  |  |  |  |  |  |  |  |  |  |  |
| CC(C)C[C@H](NC(=O)[C@H](Cc1c[nH]c2ccccc12)NC(=O)[C@H](Cc1c[nH]c2ccccc12)NC(=O)[C@@H](N)Cc1c[nH]c2ccccc12)C(=O)N[C@@H](CCCNC(=N)N)C(=O)N[C@@H](CCCNC(=N)N)C(=O)N[C@@H](CCCNC(=N)N)C(=O)N[C@@H](Cc1c[nH]c2ccccc12)C(N)=O [Horine, WWWLRRRW] (H-WWWLRRRW-NH2; N-terminus and C-terminus assumed) |  |  | 5000 | > 100 µM | > 80 µM | 12.5 µM (≈ 16.8 µg/mL) | > 35 µM | > 50 µM | 4 µM (≈ 5.37 µg/mL) | 2 µM (≈ 2.69 µg/mL) | > 200 µM |  |  |
| CC(C)[C@H](NC(=O)[C@H](Cc1c[nH]c2ccccc12)NC(=O)[C@H](Cc1c[nH]c2ccccc12)NC(=O)[C@H](Cc1c[nH]c2ccccc12)NC(=O)[C@H](Cc1c[nH]c2ccccc12)NC(=O)[C@H](CCCNC(=N)N)NC(=O)[C@H](CCCNC(=N)N)NC(=O)[C@@H](N)CCCNC(=N)N)C(N)=O [Verine, RRRWWWWV] (H-RRRWWWWV-NH2; N-terminus and C-terminus assumed) |  |  | 5000 | > 80 µM | > 80 µM |  | > 25 µM | > 12.5 µM |  | 2 µM (≈ 2.66 µg/mL) |  | 4 µM (≈ 5.32 µg/mL) | > 200 µM |
